Experiment: xn = mol fraction of the nth substance listed

O=CN1CCOCC1 + Cc1ccc(C)cc1
viscosity [mPa·s]
Conditions	298.15 K	303.15 K	313.15 K	323.15 K
101 kPa, x2 = 0.1	5.473	4.774	3.78	3.059
101 kPa, x2 = 0.2	3.996	3.557	2.865	2.378
101 kPa, x2 = 0.3	3.008	2.716	2.243	1.893
101 kPa, x2 = 0.4	2.311	2.107	1.782	1.528
101 kPa, x2 = 0.5	1.837	1.7	1.443	1.263
101 kPa, x2 = 0.6	1.38	1.295	1.098	0.944
101 kPa, x2 = 0.7	1.099	1.018	0.8763	0.7736
101 kPa, x2 = 0.8	0.8844	0.824	0.7219	0.6357
101 kPa, x2 = 0.9	0.731	0.6863	0.6047	0.5387
101.3 kPa, x2 = 0.02757	6.848	–	–	–
101.3 kPa, x2 = 0.05782	6.12	–	–	–
101.3 kPa, x2 = 0.09608	5.439	–	–	–
101.3 kPa, x2 = 0.1653	4.378	–	–	–
101.3 kPa, x2 = 0.2769	3.14	–	–	–
101.3 kPa, x2 = 0.355	2.505	–	–	–
101.3 kPa, x2 = 0.4708	1.842	–	–	–
101.3 kPa, x2 = 0.5471	1.542	–	–	–
101.3 kPa, x2 = 0.6377	1.231	–	–	–
101.3 kPa, x2 = 0.6871	1.093	–	–	–
101.3 kPa, x2 = 0.7745	0.899	–	–	–
101.3 kPa, x2 = 0.8554	0.772	–	–	–
101.3 kPa, x2 = 0.9319	0.668	–	–	–

O=CN1CCOCC1 + Cc1cccc(C)c1
viscosity [mPa·s]
Conditions	298.15 K	303.15 K	313.15 K	323.15 K
101 kPa, x2 = 0.1	5.508	4.826	3.793	3.081
101 kPa, x2 = 0.2	4.047	3.589	2.886	2.4
101 kPa, x2 = 0.3	3.049	2.741	2.257	1.905
101 kPa, x2 = 0.4	2.34	2.132	1.778	1.522
101 kPa, x2 = 0.5	1.792	1.646	1.381	1.192
101 kPa, x2 = 0.6	1.38	1.267	1.076	0.9311
101 kPa, x2 = 0.7	1.082	1.002	0.8623	0.7574
101 kPa, x2 = 0.8	0.8664	0.8124	0.708	0.6298
101 kPa, x2 = 0.9	0.7069	0.6603	0.586	0.5286
101.3 kPa, x2 = 0.03245	7.014	–	–	–
101.3 kPa, x2 = 0.06364	6.442	–	–	–
101.3 kPa, x2 = 0.09907	5.89	–	–	–
101.3 kPa, x2 = 0.1608	5.016	–	–	–
101.3 kPa, x2 = 0.2806	3.707	–	–	–
101.3 kPa, x2 = 0.3561	3.033	–	–	–
101.3 kPa, x2 = 0.4744	2.278	–	–	–
101.3 kPa, x2 = 0.5701	1.829	–	–	–
101.3 kPa, x2 = 0.6556	1.511	–	–	–
101.3 kPa, x2 = 0.6984	1.38	–	–	–
101.3 kPa, x2 = 0.7819	1.159	–	–	–
101.3 kPa, x2 = 0.876	0.961	–	–	–
101.3 kPa, x2 = 0.9337	0.875	–	–	–

O=CN1CCOCC1 + Cc1ccccc1
298.15 K, 101.3 kPa
Conditions	viscosity [mPa·s]
x2 = 0.01784	7.177
x2 = 0.06829	6.102
x2 = 0.1881	4.224
x2 = 0.2675	3.336
x2 = 0.3466	2.653
x2 = 0.4247	2.155
x2 = 0.5094	1.701
x2 = 0.5956	1.359
x2 = 0.6849	1.099
x2 = 0.7722	0.879
x2 = 0.8479	0.759
x2 = 0.9178	0.646

S=C=S + Cc1ccccc1
298.15 K, 101 kPa
Conditions	viscosity [mPa·s]
x1 = 0.1	0.5295
x1 = 0.2	0.5063
x1 = 0.3	0.4837
x1 = 0.4	0.462
x1 = 0.5	0.4412
x1 = 0.6	0.4217
x1 = 0.7	0.4035
x1 = 0.8	0.3868
x1 = 0.9	0.3718
x2 = 0.06082	0.37
x2 = 0.3361	0.417
x2 = 0.587	0.469

O=CN1CCOCC1 + Cc1ccccc1C
viscosity [mPa·s]
Conditions	298.15 K	303.15 K	313.15 K	323.15 K
101 kPa, x2 = 0.1	5.936	5.18	4.063	3.294
101 kPa, x2 = 0.2	4.582	4.054	3.243	2.671
101 kPa, x2 = 0.3	3.602	3.231	2.627	2.194
101 kPa, x2 = 0.4	2.87	2.584	2.142	1.8
101 kPa, x2 = 0.5	2.233	2.034	1.71	1.467
101 kPa, x2 = 0.6	1.744	1.583	1.347	1.161
101 kPa, x2 = 0.7	1.385	1.271	1.08	0.9316
101 kPa, x2 = 0.8	1.122	1.034	0.8894	0.7789
101 kPa, x2 = 0.9	0.9104	0.8483	0.7328	0.6556
101.3 kPa, x2 = 0.05737	6.316	–	–	–
101.3 kPa, x2 = 0.1297	4.989	–	–	–
101.3 kPa, x2 = 0.2312	3.617	–	–	–
101.3 kPa, x2 = 0.5161	1.652	–	–	–
101.3 kPa, x2 = 0.5998	1.343	–	–	–
101.3 kPa, x2 = 0.6877	1.088	–	–	–
101.3 kPa, x2 = 0.7767	0.908	–	–	–
101.3 kPa, x2 = 0.9523	0.635	–	–	–
